Laboratory results: article PMC3835493, “Acetylshikonin, a Novel AChE Inhibitor, Inhibits Apoptosis via Upregulation of Heme Oxygenase-1 Expression in SH-SY5Y Cells” (Evidence-based Complementary and Alternative Medicine : eCAM, 2013)
Read-outs that look alike come from different tables or passages of the source.

Columns and labels:
SH-SY5Y cells [1] = test: Intracellular ROS measurement (H2DCF-DA); assay type: cell-based, human; conditions: acetylshikonin 5 and 10 μM 12 h, H2O2 500 μM 2 h
Procedure: (§1) The cells were treated with desired concentration of acetylshikonin for 12 hours, and then the cells were stained with H2DCF-DA (10 μM) for 30 min. After 30 min staining, cells were stimulated with H2O2 (500 μM) for 2 h, and the fluorescence intensity of H2DCF-DA was measured/detected by a fluorescence spectrophotometer (M1000, TECAN, Austria GmbH, Austria) using excitation/emission of 485/530 nm and a fluorescence microscope (Nikon Live Cell Imaging System Ti-E, Japan) using excitation/emission of 490/530 nm, respectively. Fluorescence intensity of each group was normalized to the control group.

PC12 cells [2] = test: Mitochondrial membrane potential (Rhodamine 123); assay type: cell-based, rat; conditions: pretreatment 12 h, H2O2 500 μM 2 h
Procedure: as §1, with “were” for “were stained with H2DCF-DA (10 μM) for 30 min. After 30 min staining, cells were”, “2 h. Rhodamine 123 (2 μM) was added to cells after” for “2 h, and”, “the treatment for 30 min at 37°C. Fluorescence” for “the fluorescence”, “of Rhodamine 123” for “of H2DCF-DA”, “Japan) and” for “Japan)”

SH-SY5Y cells [3] = test: Mitochondrial membrane potential (Rhodamine 123); assay type: cell-based, human; conditions: pretreatment 12 h, H2O2 500 μM 2 h
Procedure: as §1, with “were” for “were stained with H2DCF-DA (10 μM) for 30 min. After 30 min staining, cells were”, “2 h. Rhodamine 123 (2 μM) was added to cells after” for “2 h, and”, “the treatment for 30 min at 37°C. Fluorescence” for “the fluorescence”, “of Rhodamine 123” for “of H2DCF-DA”, “Japan) and” for “Japan)”

[4] = system: Bcl-2, Bax, p53, caspase-3 in PC12 cells; test: Western blot of apoptosis-related proteins; assay type: cell-based, rat; conditions: pretreatment 12 h, H2O2 500 μM 1 h
Procedure: (§2) Proteins in the total cell lysate were separated by 10% SDS polyacrylamide gel electrophoresis and electrotransferred to a polyvinylidene difluoride membrane (Immobilon-P membrane; Millipore, Bedford, MA, USA). After the blot was blocked in a solution of 5% bovine serum albumin, membrane was incubated overnight with primary antibodies against Bcl-2, Bax, Caspase-3, p53, HO-1, or beta-actin followed by incubation with horseradish peroxidase-conjugated secondary antibodies for 1 h. Specific bands were detected with ECL-plus western blotting detection reagent (GE Healthcare Bio-Sciences) and photographed with FujiFilm LAS-3000 (Fujifilm, Tokyo, Japan).

HO-1 in SH-SY5Y cells = test: Western blot of HO-1 expression; assay type: cell-based, human; conditions: acetylshikonin 12 h, H2O2 500 μM 1 h
Procedure: as §2

PC12 cells [5] = test: Intracellular ROS measurement (H2DCF-DA); assay type: cell-based, rat; conditions: acetylshikonin 5 and 10 μM 12 h, H2O2 500 μM 2 h
Procedure: as §1

SH-SY5Y cells [6] = test: Nuclear staining with Hoechst 33258 (apoptosis); assay type: cell-based, human; conditions: pretreatment 12 h, H2O2 4 h
Procedure: (§3) SH-SY5Y cells and PC12 cells (1 × 10^4 cells/well) in 24-well plates were preincubated with or without test chemicals for 12 hours and subsequently stimulated with H2O2 for the 4 hours. The nuclear morphology of apoptotic cells was measured by Hoechst 33258 nuclear staining according to the manufacturer's instructions. The nuclear morphological change was observed under a fluorescence microscope (Nikon Live Cell Imaging System Ti-E, Japan) using excitation/emission of 360/460 nm.

[7] = system: Bcl-2, Bax, p53, caspase-3 in SH-SY5Y cells; test: Western blot of apoptosis-related proteins; assay type: cell-based, human; conditions: pretreatment 12 h, H2O2 500 μM 1 h
Procedure: as §2

human recombinant AChE = biological target: T1, human recombinant AChE (Homo sapiens, UniProt P22303); test: AChE inhibition, Ellman assay; assay type: biochemical; conditions: 37°C
T1 construct: made in house
Procedure: Candidate phytochemicals dissolved in DMSO were tested for AChE inhibitory activity by the Ellman assay with minor modifications. Ten μL of human recombinant AChE (prepared in-house) and 1 μL of drug were added into 190 μL of PBS buffer (100 mM, pH 7.4) and incubated in a 96-well plate at 37°C for 10 min. […] After 10 min incubation with the substrate, the optical densities were measured in a 96-well plate reader at 412 nm. The optical density was inversely proportional to the inhibitory activity. By contrast, a blank control without the tested compound was also performed in parallel; the normal hydrolytic rate of the enzyme can be represented by the blank control. Each assay was performed in triplicate.
The percentage inhibitory activities of the various compounds were calculated by comparison with the positive control and the blank control. […] Data analysis was performed with Prism software. Inhibitory effects were expressed as IC50 value calculated by regression analysis.

PC12 cells [8] = test: Cytotoxicity test by MTT without H2O2; assay type: cell-based, rat; conditions: 10 μM, 12 h, no H2O2
Procedure: (§4) MTT colorimetric assay was performed to determine the cell viability. Cells were seeded in 96-well plates at a density of 5 × 10^3 cells/well and treated with test chemicals at desired concentration at 37°C for 12 hours. Subsequently, cells were stimulated with H2O2 (500 μM) for 4 hours. After the exposure period, the cells were incubated with 20 μL MTT (5 mg/mL) for 4 h. The cells were eluted with DMSO and quantified with a spectrophotometer (Ultramark Microplate Reader, Bio-Rad) at a wavelength of 590 nm.
(§5) Figure 1 Potential AChE inhibitors of natural products attenuated H2O2-induced cell death in both SH-SY5Y and PC12 cells. SH-SY5Y (a) or PC12 (b) cells were cultured with desired concentration of H2O2 for 4 hours; the cell viability was detected by MTT. Data shown are means ± SEM of results from independent experiments in triplicate. *P < 0.05 compared with control cells. SH-SY5Y (c) or PC12 (d) cells were incubated with different potential AChE inhibitors (10 μM) for 12 hours and then stimulated with H2O2 (500 μM) for 4 hours, and the viability was detected by MTT. […] For cytotoxicity test, SH-SY5Y (e) or PC12 (f) cells were incubated with different potential AChE inhibitors (10 μM) for 12 hours, and the viability was detected by MTT. […]

HO-1 in PC12 cells = test: Western blot of HO-1 expression; assay type: cell-based, rat; conditions: acetylshikonin 12 h, H2O2 500 μM 1 h
Procedure: as §2

SH-SY5Y cells [9] = test: MTT cell viability, H2O2-induced cell death; assay type: cell-based, human
Procedure: (§6) Human neuroblastoma SH-SY5Y cells were from ATCC (Manassas, VA, usa) and maintained in DMEM/F-12 containing 10% FBS and maintained at 37°C with 95% humidified air and 5% CO2. Rat adrenal medulla pheochromocytoma PC12 cells were from ATCC (Manassas, VA, USA) and maintained in DMEM containing 10% FBS at 37°C with 95% humidified air and 5% CO2.
as §4

PC12 cells [10] = test: MTT cell viability, H2O2-induced cell death; assay type: cell-based, rat
Procedure: as §6, §4

SH-SY5Y cells [11] = test: Cytotoxicity test by MTT without H2O2; assay type: cell-based, human; conditions: 10 μM, 12 h, no H2O2
Procedure: as §4, §5

PC12 cells [12] = test: Nuclear staining with Hoechst 33258 (apoptosis); assay type: cell-based, rat; conditions: pretreatment 12 h, H2O2 4 h
Procedure: as §3

[13] = IC50, human recombinant AChE, pH 7.4
[14] = acetylshikonin 1–10 μM 12 h, then H2O2 500 μM 4 h
[15] = test chemical 10 μM 12 h, then H2O2 500 μM 4 h
[16] = human recombinant AChE, pH 7.4, read-out: IC50
[17] = ZnPP 10 μM 2 h, acetylshikonin 12 h, H2O2 500 μM 4 h, MTT

T1 sequence (P22303 32-614): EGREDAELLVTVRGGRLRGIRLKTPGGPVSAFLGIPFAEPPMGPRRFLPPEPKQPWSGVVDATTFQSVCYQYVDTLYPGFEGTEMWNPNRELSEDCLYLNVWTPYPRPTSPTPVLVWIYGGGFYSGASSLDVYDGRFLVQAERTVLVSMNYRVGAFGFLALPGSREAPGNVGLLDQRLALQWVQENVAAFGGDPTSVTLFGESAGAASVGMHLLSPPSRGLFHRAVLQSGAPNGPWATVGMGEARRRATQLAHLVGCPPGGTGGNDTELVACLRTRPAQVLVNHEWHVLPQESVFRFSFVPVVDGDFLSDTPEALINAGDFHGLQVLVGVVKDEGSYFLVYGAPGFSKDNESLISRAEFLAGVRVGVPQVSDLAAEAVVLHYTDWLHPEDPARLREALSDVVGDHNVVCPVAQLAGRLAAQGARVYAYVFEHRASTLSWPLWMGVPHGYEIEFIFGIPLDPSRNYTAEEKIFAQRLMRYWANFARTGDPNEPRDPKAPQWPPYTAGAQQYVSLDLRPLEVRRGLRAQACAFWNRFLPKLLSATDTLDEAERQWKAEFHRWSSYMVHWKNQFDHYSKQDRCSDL

`CC(=O)O[C@H](CC=C(C)C)C1=CC(=O)c2c(O)ccc(O)c2C1=O` [Acetylshikonin] was tested, and the “H2O2-induced ROS generation” value (SH-SY5Y cells [1]) was “statistically declined”, the “H2O2-induced mitochondrial membrane potential loss” value (PC12 cells [2]) was “rescued by acetylshikonin in a dose-dependent manner” and the “H2O2-induced mitochondrial membrane potential loss” value (SH-SY5Y cells [3]) was “rescued by acetylshikonin in a dose-dependent manner”. The “Bax and p53 expression” value [4] was “decreased”, the Bcl-2 expression [4] was “increased expression” and the “H2O2-induced decreased caspase-3 and increased cleaved caspase-3” value [4] was “rescued by acetylshikonin in a dose-dependent manner”. The HO-1 expression (HO-1 in SH-SY5Y cells) was “increased”, the “H2O2-induced ROS generation” value (PC12 cells [5]) was “statistically declined” and the “H2O2-induced cell shrinkage and nuclear condensation (Hoechst 33258)” value (SH-SY5Y cells [6]) was “dramatically ameliorated”. For the same compound, the “Bax and p53 expression” value [7] was “decreased”, the Bcl-2 expression [7] was “increased expression” and the “H2O2-induced decreased caspase-3 and increased cleaved caspase-3” value [7] was “rescued by acetylshikonin in a dose-dependent manner”. For the same compound, the IC50 (human recombinant AChE; [13]) was 34.6 µM, the “Cytotoxicity in MTT assay” value (PC12 cells [8]) was “not observed” and the HO-1 expression (HO-1 in PC12 cells) was “no impact”. The “H2O2-induced cell death and morphology change, dose dependence” value (SH-SY5Y cells [9]; [14]) was “dose dependently attenuated”, the “H2O2-induced cell death (cell viability, MTT)” value (SH-SY5Y cells [9]; [15]) was “highest viability” and the “H2O2-induced cell death and morphology change, dose dependence” value (PC12 cells [10]; [14]) was “dose dependently attenuated”. The “H2O2-induced cell death (cell viability, MTT)” value (PC12 cells [10]; [15]) was “highest viability”, the “Cytotoxicity in MTT assay” value (SH-SY5Y cells [11]) was “not observed” and the “H2O2-induced cell shrinkage and nuclear condensation (Hoechst 33258)” value (PC12 cells [12]) was “dramatically ameliorated”.
With `CC(C)=CCc1c2occc2c(O)c2ccc(=O)oc12` [Alloisoimperatorin] the IC50 (human recombinant AChE; [16]) was 20.7 µM.
For `O=C1c2cccc(O)c2C(=O)c2c(O)cc(CO)cc21` [Aloe-emodin], the IC50 (human recombinant AChE; [13]) was 26.8 µM.
`Cc1cc(O)c2c(c1)C(=O)c1cccc(O)c1C2=O` [Chrysophanol] gave an IC50 (human recombinant AChE; [13]) of 75.8 µM.
Compound `Cc1cc(O)c2c(c1)C(=O)c1cc(O)cc(O)c1C2=O` [Emodin] has an IC50 (human recombinant AChE; [13]) of 21.8 µM.
For `CC(C)=CCOc1c2occc2cc2ccc(=O)oc12` [Imperatorin], the IC50 (human recombinant AChE; human recombinant AChE, pH 7.4) was “Undetected”.
`CC(C)=CCC(OC(=O)CC(C)C)C1=CC(=O)c2c(O)ccc(O)c2C1=O` (stereo not shown) [Isovalerylshikonin] showed an IC50 (human recombinant AChE; [16]) of 82.4 µM.
Compound `COc1c2ccoc2c(OCC=C(C)C)c2oc(=O)ccc12` [Phellopterin] has an IC50 (human recombinant AChE; [16]) of 177 µM.
Compound `O=C(O)c1cc(O)c2c(c1)C(=O)c1cccc(O)c1C2=O` [Rhein] has an IC50 (human recombinant AChE; [13]) of 237 µM.
Compound `CC(C)=CC[C@@H](O)C1=CC(=O)c2c(O)ccc(O)c2C1=O` [Shikonin] has an IC50 (human recombinant AChE; [13]) of 71.8 µM.
`COc1c2occc2cc2ccc(=O)oc12` [Xanthotoxin] gave an IC50 (human recombinant AChE; human recombinant AChE, pH 7.4) of 133 µM.
`C=CC1=C(C)c2cc3[n-]c(cc4[n-]c(cc5nc(cc1n2)C(C)=C5C=C)c(C)c4CCC(=O)O)c(CCC(=O)O)c3C.[Zn+2]` [ZnPP, zinc protoporphyrin IX, reference compound] was tested, and the “Effect of ZnPP on protective effects of acetylshikonin on H2O2-induced cell death” value (SH-SY5Y cells [9]; [17]) was “reversed the protective effects” and the “Effect of ZnPP on protective effects of acetylshikonin on H2O2-induced cell death” value (PC12 cells [10]; [17]) was “not observed”.
In the case of `CC(C)=CCC(OC(=O)C=C(C)C)C1=CC(=O)c2c(O)ccc(O)c2C1=O` (stereo not drawn) [β,β-Dimethylacrylshikonin], the IC50 (human recombinant AChE; human recombinant AChE, pH 7.4) is reported as 62.4 µM.
